Like-named read-outs stand apart in the source and are kept apart here.
Experiments:
[1] = test system: Promonocytic cell line (U937); assay: Incubation of CD33+ promonocytic cell line U937 with CA/PCQ, viable cell count; type: cell-based; conditions: for inhibition at 25 µg/mL: U937, 25.0 μg/ml; for inhibition at 50 µg/mL: U937, 50.0 μg/ml; for inhibition at 100 µg/mL: U937, 100.0 μg/ml
Procedure: Culture of Promonocytic cell line U937. […] This cell line is CD33^+. Incubation of CD33^+ cell line U937 with CA. […] Cells were then washed and counted for viability.

AML patient's PBMC = assay: Incubation of AML patient's PBMC with CA, viable cell count; type: cell-based, human
Procedure: Whole blood (10 ml each) was drawn from previously diagnosed myeloid leukemic patients, one patient was diagnosed as AML and the other one was diagnosed as CML. Mononuclear cells were separated by Ficoll/hypaque density gradient centrifugation. PBMC (1×10^5-2×10^6/ml) of myeloid leukemia patients were incubated with varied concentrations of CA for 48 hours at 37° C. in 5% CO2. Cells were then washed and counted for viability.

Normal PBMC = assay: Growth inhibition of normal individuals' PBMC by CA/PCQ; type: cell-based, human; conditions: Homo sapiens; for inhibition at 50 µg/mL: 50.0 μg/ml; for inhibition at 100 µg/mL: 100.0 μg/ml
Source text: Preparation of peripheral blood mononuclear cells (PBMC) from normal individuals. Whole blood was collected and mononuclear cells were separated by Ficoll/Hypaque density gradient centrifugation.

[2] = test system: CML patient's leukemic cells; assay: Analysis of cell cycle progression and apoptosis by flow cytometry; type: cell-based, human
Procedure: Analysis of cell cycle progression and apoptosis by Flow cytometry PBMC of a CML patient was cultured in RPMI-1640 medium supplemented with 10% […] fetal bovine serum in the presence or absence of CA (100.0 μg/ml) for 48 hr. at 37° C. in 5% CO2. Cells were fixed with 40% ethanol treated with 500 μg/ml Rnase A, and then with 69 μM propidium iodide for analysis of DNA content by Flow Cytometry as described (Mitra et al., Molecular Medicine, 6:527-541, 2000).

[3] = Homo sapiens, U-937, 24 h, 1 day, 1 × 10^5 cells per ml per well, read-out: Percentage inhibition of Cell Growth
[4] = Homo sapiens, U-937, 48 h, 2 days, 1 × 10^5 cells per ml per well, read-out: Percentage inhibition of Cell Growth
[5] = Homo sapiens, U-937, 72 h, 3 days, 1 × 10^5 cells per ml per well, read-out: Percentage inhibition of Cell Growth
[6] = Homo sapiens, U-937, 72 h, 3 days, 2×10^5 cells per ml per well, read-out: % Inhibition of cell growth (After 3 days of incubation)
[7] = 24 h, Normal PBMC, 1 day, 1 × 10^5 cells per ml per well, read-out: Percentage inhibition of Cell Growth
[8] = 48 h, Normal PBMC, 2 days, 1 × 10^5 cells per ml per well, read-out: Percentage inhibition of Cell Growth
[9] = 72 h, Normal PBMC, 3 days, 1 × 10^5 cells per ml per well, read-out: Percentage inhibition of Cell Growth
[10] = CML patient's leukemic cells, CA 100.0 μg/ml, 2 days

In the case of `O=C(/C=C/c1ccc(O)c(O)c1)O[C@@H]1C[C@](O)(C(=O)O)C[C@@H](O)[C@H]1O` (single isomer, unassigned) [CA, chlorogenic acid or 3-Caffeoyl quinic acid], the inhibition at 10 µg/mL ([1]; Homo sapiens, U-937, 24 h, U937, 10.0 μg/ml, 1 day, 1 × 10^5 cells per ml per well, read-out: Percentage inhibition of Cell Growth) is reported as 8.33%, the inhibition at 25 µg/mL [1, 3] is reported as 16.7% and the inhibition at 50 µg/mL [1, 3] is reported as 25%. For the same molecule, the inhibition at 100 µg/mL [1, 3] was 45.8%, the inhibition at 10 µg/mL ([1]; Homo sapiens, U-937, 48 h, U937, 10.0 μg/ml, 2 days, 1 × 10^5 cells per ml per well, read-out: Percentage inhibition of Cell Growth) was 44% and the inhibition at 25 µg/mL [1, 4] was 52%. For the same molecule, the inhibition at 50 µg/mL [1, 4] was 64%, the inhibition at 100 µg/mL [1, 4] was 96% and the inhibition at 10 µg/mL ([1]; Homo sapiens, U-937, 72 h, U937, 10.0 μg/ml, 3 days, 1 × 10^5 cells per ml per well, read-out: Percentage inhibition of Cell Growth) was 57.1%. It also gave an inhibition at 25 µg/mL [1, 5] of 71.4%, an inhibition at 25 µg/mL [1, 6] of 16.7% and an inhibition at 50 µg/mL [1, 5] of 89.3%. The inhibition at 50 µg/mL [1, 6] was 25%, the inhibition at 100 µg/mL [1, 5] was 100% and the inhibition at 10 µg/mL ([1]; Homo sapiens, U-937, U937, 10 μg/ml, 48 hr, 1 × 10^5 cells/ml/well, read-out: Percent inhibition of cell growth after 48 hr of incubation) was 25%. For the same molecule, the inhibition at 15 µg/mL ([1]; Homo sapiens, U-937, U937, 15 μg/ml, 48 hr, 1 × 10^5 cells/ml/well, read-out: Percent inhibition of cell growth after 48 hr of incubation) was 43.7%, the inhibition at 20 µg/mL ([1]; Homo sapiens, U-937, U937, 20 μg/ml, 48 hr, 1 × 10^5 cells/ml/well, read-out: Percent inhibition of cell growth after 48 hr of incubation) was 90.6% and the “destruction of cells (in words)” value ([1]; U937) was “destroyed”. It also gave an inhibition at 20 µg/mL (AML patient's PBMC; Homo sapiens, AML patient's PBMC, 20 μg/ml, 48 hr, 1 × 10^5 cells/ml/well, read-out: Percent inhibition of cell growth after 48 hr of incubation) of 9.5%, an inhibition at 50 µg/mL (AML patient's PBMC; Homo sapiens, AML patient's PBMC, 50 μg/ml, 48 hr, 1 × 10^5 cells/ml/well, read-out: Percent inhibition of cell growth after 48 hr of incubation) of 16.6% and an inhibition at 100 µg/mL (AML patient's PBMC; Homo sapiens, AML patient's PBMC, 100 μg/ml, 48 hr, 1 × 10^5 cells/ml/well, read-out: Percent inhibition of cell growth after 48 hr of incubation) of 73.8%. For the same molecule, the inhibition at 500 µg/mL (AML patient's PBMC; Homo sapiens, AML patient's PBMC, 500 μg/ml, 48 hr, 1 × 10^5 cells/ml/well, read-out: Percent inhibition of cell growth after 48 hr of incubation) was 85.7%, the “destruction of cells (in words)” value (AML patient's PBMC; PBMC of myeloid leukemia patients (AML)) was “destroyed” and the inhibition at 50 µg/mL (Normal PBMC; [7]) was 6.66%. The inhibition at 100 µg/mL (Normal PBMC; [7]) was 6.66%, the inhibition at 50 µg/mL (Normal PBMC; [8]) was 10.3% and the inhibition at 100 µg/mL (Normal PBMC; [8]) was 17.2%. For the same molecule, the inhibition at 50 µg/mL (Normal PBMC; [9]) was 15.2%, the inhibition at 100 µg/mL (Normal PBMC; [9]) was 19.5% and the inhibition at 25 µg/mL (Normal PBMC; 72 h, Normal individual's PBMC, 25.0 μg/ml, 3 days, 2×10^5 cells per ml per well, read-out: % Inhibition of cell growth (After 3 days of incubation)) was 1.03%. The inhibition at 50 µg/mL (Normal PBMC; 72 h, Normal individual's PBMC, 3 days, 2×10^5 cells per ml per well, read-out: % Inhibition of cell growth (After 3 days of incubation)) was 1.03%, the “apoptosis by cell-cycle analysis (in words)” value ([2]; 100.0 μg/ml, two days of culture) was “caused apoptosis” and the “percentage of cells in (>2n DNA)” value [2, 10] was 56.35%. The “percentage of cells in G0/G1 (2n DNA)” value [2, 10] was 33.13% and the “percentage of cells in Sub G0/G1 (apoptotic 2n DNA)” value [2, 10] was 10.64%.
